Common to all, as to assay: NCI-60 cell line screen, 48 h
The subject of assay [1] is LOX IMVI melanoma.
Assay [2] concerns MOLT-4 leukemia.
Assay [3] relates to OVCAR-4 ovarian.
The subject of assay [4] is M14 melanoma.
Assay [5] concerns NCI-H522 lung.
Assay [6] has as its system SNB-75 CNS.
The subject of assay [7] is MCF7 breast.
Assay [8] deals with SK-MEL-28 melanoma.

Several values for one entry are separate records, joined by “and”; a condition that tells them apart may be missing. Equal values may be shown once.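 Cells were grown in 96-well plates and exposed to each compound for 48 hours at five concentrations; endpoints were interpolated linearly between bracketing concentrations, or set to the highest concentration if not reached. Here, GI50 denotes the concentration required for 50% inhibition of growth. TGI: total growth inhibition.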

On to `C=C1C[C@@H]2O[C@H]3[C@H]4[C@@H](CC[C@@](C)(OC(=O)CCC)[C@H]42)[C@@H](C)C(=O)O[C@@]3(C)CC[C@H]1OO`, for which the GI50 was 15.4 µM in assay [1]; 11 µM in assay [2]; 19.5 µM in assay [3]; 23.7 µM in assay [4]; 18.2 µM in assay [5]; 20.5 µM in assay [6]. Moreover, the values for the GI50 in assay [7] and in assay [8] were 20.5 µM and 20 µM, respectively. The TGI turned out to be 28.7 µM in assay [1]; 23 µM in assay [2]; 40.2 µM in assay [3]; 45.3 µM in assay [4]; 36.5 µM in assay [5]; 44.6 µM in assay [6]. Further, the TGI in assay [7] stood at 38.8 µM; in assay [8], 35.4 µM.
Take `CCOc1ccc2cc(-c3nn(CC4CCNCC4)c4ncnc(N)c34)ccc2c1`: the GI50 in assay [1] was 26.8 µM; in assay [2] it was 4.73 µM; in assay [3], 10.9 µM; in assay [4], 14.1 µM; in assay [5], 15.8 µM; in assay [6] it was 5.13 µM. Also, the GI50 in assay [7] is 11.2 µM; in assay [8] it was 16.1 µM. Besides, the TGI was more than 100 µM in assay [1]; 19.8 µM in assay [2]; 33.4 µM in assay [3]; 29.3 µM in assay [4]; 30.4 µM in assay [5]; 20.8 µM in assay [6]. Also, the TGI in assay [7] was found to be 24.8 µM; in assay [8], 30.2 µM.
Turning to `COc1cc2ncnc(Oc3cccc(NC(=O)Nc4cc(C(C)(C)C(F)(F)F)on4)c3)c2cc1OC`, the GI50 in assay [1] was 0.319 µM and 0.421 µM; in assay [2], 2.46 µM and 2.06 µM; in assay [3], 2.15 µM and 2.8 µM; in assay [4], 0.105 µM and 0.18 µM; in assay [5], 0.37 µM and 0.407 µM; in assay [6], 2.79 µM and 6.27 µM. Also, the GI50 in assay [7] is 2.79 µM and 3.18 µM; in assay [8], 0.179 µM and 0.201 µM. Moreover, the TGI in assay [1] was 1.54 µM and 1.81 µM; in assay [2] it was more than 29.7 µM; in assay [3] it was more than 100 µM; in assay [4] it was 1.47 µM and 1.91 µM; in assay [5], 12.6 µM and > 7.06 µM; in assay [6], 13.5 µM and > 10 µM. The TGI in assay [7] is 15 µM and > 10 µM; in assay [8], 8.03 µM and 3.58 µM.
With `COc1ccc2c(c1)C(=O)c1c-2c(OCCN(C)C)nc2cc(OC)c(OC)cc12`, the GI50 is 1.01 µM in assay [1]; 0.197 µM in assay [2]; 2.81 µM in assay [3]; 18.5 µM in assay [4]; 10.6 µM in assay [5]; 8.65 µM in assay [6]. Moreover, the GI50 in assay [7] is 0.271 µM; in assay [8], 18.9 µM. For the same compound, the TGI was 12.3 µM in assay [1]; more than 100 µM in assay [2]; more than 100 µM in assay [3]; 61.6 µM in assay [4]; more than 100 µM in assay [5]; 26.1 µM in assay [6]. Besides, the figures for the TGI in assay [7] and in assay [8] were 14.9 µM and 35.4 µM, respectively.
For `COc1ccc(C2=Nn3c(nnc3-n3nc(C)cc3C)SC2)cc1`, the GI50 in assay [1] was 0.0694 µM; in assay [2], 0.116 µM; in assay [3], 4.53 µM; in assay [4], 0.0626 µM; in assay [5], 0.031 µM; in assay [6], 0.0214 µM. The GI50 is 0.0642 µM in assay [7] and 0.294 µM in assay [8]. The TGI in assay [1] is more than 100 µM; in assay [2], more than 100 µM; in assay [3], more than 100 µM; in assay [4] it was more than 100 µM; in assay [5], 0.529 µM; in assay [7], more than 100 µM. Further, the TGI in assay [8] is more than 100 µM.
Regarding `COc1cc2cc(Oc3cccc(NC(=O)Nc4cc(C(F)(F)F)cc(C(F)(F)F)c4)c3)c(C)nc2cc1OC`, the GI50 in assay [1] was 1.44 µM; in assay [2], 1.13 µM; in assay [3] it was 1.22 µM; in assay [4], 1 µM; in assay [5], 1.25 µM; in assay [6], 1.73 µM. Also, the GI50 in assay [7] is 0.544 µM; in assay [8] it was 1.19 µM. Further, the TGI in assay [1] amounted to 2.96 µM; in assay [2], 4.04 µM; in assay [3], 4.44 µM; in assay [4] it was 2.88 µM; in assay [5], 2.95 µM; in assay [6], 5.05 µM. Further, the TGI is 2.36 µM in assay [7] and 3.09 µM in assay [8].
`Clc1ccc(CN2CCCN(Cc3ccc(Cl)cc3)C2c2cc3ccccc3c3ccccc23)cc1`: the TGI in assay [1] is more than 100 µM; in assay [2], more than 100 µM; in assay [3], more than 100 µM; in assay [4], 34.2 µM; in assay [5], 51 µM; in assay [6], 78.5 µM. For the same compound, the results for the TGI in assay [7] and in assay [8] were more than 100 µM and 54.5 µM, respectively.
For the compound `COc1ccc(/C=C/C(=O)c2cc3c(N)c(C(=O)Nc4ccc(OC)cc4)sc3nc2C)cc1`, the GI50 in assay [1] is 1.06 µM; in assay [2], 0.697 µM; in assay [3] it was 0.324 µM; in assay [4] it was 0.19 µM; in assay [5] it was 0.178 µM; in assay [6] it was 0.344 µM. Further, the GI50 in assay [7] was 0.0644 µM; in assay [8], 0.4 µM. Besides, the TGI is 11.3 µM in assay [1]; more than 50 µM in assay [2]; more than 50 µM in assay [3]; more than 26.5 µM in assay [5]; 2.21 µM in assay [6]; more than 50 µM in assay [7]. The same compound had a TGI in assay [8] of more than 50 µM.
Regarding `NC(=O)/C(=C/n1cnc(-c2cc(C(F)(F)F)cc(C(F)(F)F)c2)n1)c1cncnc1`, the GI50 in assay [1] was 0.303 µM; in assay [2], 0.0884 µM; in assay [3], 0.0833 µM; in assay [4], 0.715 µM; in assay [5], 0.331 µM; in assay [6], 0.454 µM. Moreover, the GI50 in assay [7] is 0.112 µM; in assay [8] it was 0.503 µM. Further, the TGI in assay [1] worked out at 4.36 µM; in assay [2] it was 6.32 µM; in assay [3], 16.1 µM; in assay [4], 7.86 µM; in assay [5], 4.33 µM; in assay [6], 5.48 µM. In addition, the values for the TGI in assay [7] and in assay [8] were 11.2 µM and 11.7 µM, respectively.
For the compound `N#[N+]c1ccc(Nc2ccccc2)cc1`, the GI50 in assay [1] is more than 50 µg/mL; in assay [2], more than 50 µg/mL; in assay [3] it was 0.472 µg/mL; in assay [4], more than 50 µg/mL; in assay [5], more than 50 µg/mL; in assay [6], more than 50 µg/mL. Besides, the GI50 in assay [7] and in assay [8] was more than 50 µg/mL throughout. The TGI is more than 50 µg/mL in assay [1]; more than 50 µg/mL in assay [2]; 2.27 µg/mL in assay [3]; more than 50 µg/mL in assay [4]; more than 50 µg/mL in assay [5]; more than 50 µg/mL in assay [6]. Further, the TGI in assay [7] and in assay [8] was more than 50 µg/mL each time.
Turning to `O=c1cccc(Cl)[nH]1`, the TGI in assay [1], in assay [2], in assay [3], in assay [4], in assay [5] and in assay [6] was more than 100 µM each time. Further, the TGI in assay [7] and in assay [8] was more than 100 µM each time.
Turning to `O=C1Nc2ccc3c(c2/C1=C\c1cc2c(cc1Br)OCO2)OCO3`, the GI50 in assay [1] was 0.652 µM; in assay [2], 0.489 µM; in assay [3] it was 1.7 µM; in assay [4] it was 0.341 µM; in assay [5], 0.369 µM; in assay [6], 0.189 µM. For the same compound, the GI50 was 0.351 µM in assay [7] and 0.911 µM in assay [8]. Moreover, the TGI was 4.57 µM in assay [1]; more than 100 µM in assay [2]; 5.14 µM in assay [3]; 5.76 µM in assay [4]; 8.17 µM in assay [5]; 1.41 µM in assay [6]. In addition, the TGI came to 2.87 µM in assay [7] and 5.32 µM in assay [8].
`C[C@@H]1CCc2ncc(F)cc2[C@H]2CCCN2c2ccn3ncc(c3n2)C(=O)N1`: the GI50 is 33.1 µM in assay [1]; 36.1 µM in assay [2]; 62.4 µM in assay [3]; more than 100 µM in assay [4]; 83.7 µM in assay [5]; 19.6 µM in assay [6]. Further, the results for the GI50 in assay [7] and in assay [8] were 53.1 µM and more than 100 µM, respectively. Moreover, the TGI in assay [1] was more than 100 µM; in assay [2], more than 100 µM; in assay [3], more than 100 µM; in assay [4], more than 100 µM; in assay [5], more than 100 µM; in assay [6], 97 µM. The TGI in assay [7] and in assay [8] was more than 100 µM in each case.
In the case of `C[As](C)SC1OCC(O)C(O)C1O` (stereo unspecified), the GI50 in assay [1] is 0.199 µM; in assay [2] it was 0.0825 µM; in assay [3], 1.09 µM; in assay [4], 0.128 µM; in assay [5] it was 0.0712 µM; in assay [6] it was 0.805 µM. Moreover, the GI50 in assay [7] is 0.173 µM; in assay [8], 0.387 µM. In addition, the TGI in assay [1] came out at 0.566 µM; in assay [2] it was 0.395 µM; in assay [3], 7.63 µM; in assay [4], 0.925 µM; in assay [5] it was 0.211 µM; in assay [6], 2.36 µM. Also, the figures for the TGI in assay [7] and in assay [8] were 1.29 µM and 3.33 µM, respectively.

For the origin of these results see PubChem BioAssay (NCI).
